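Cultured in 96-well plates, cells were exposed to test compound for 48 hours across five concentrations. GI50 = concentration required for 50% inhibition of growth.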 Active and inactive are the calls of the source. No stated cut-off is given here; in the data, active = GI50 up to about 1.1 µM and inactive = higher. Square brackets hold non-standard residues; d marks the D form. Peptide text beside a SMILES is read from it. * marks the point of attachment. Phe(4-NO2) = N[CH](Cc1ccc([N+](=O)[O-])cc1)C(=O)O; Boc = CC(C)(C)OC(=O)*
Assays:
Assay in all cases: growth of human tumour cells (NCI), 48 h
ACHN = test system: ACHN
CAKI-1 = test system: CAKI-1
HCT-116 = test system: HCT-116
HL-60 = test system: HL-60
HOP-62 = test system: HOP-62
HOP-92 = test system: HOP-92
K562 = test system: K562
KM12 = test system: KM12
LOX IMVI = test system: LOX IMVI
MOLT-4 = test system: MOLT-4
Malme-3M = test system: Malme-3M
NCI-H522 = test system: NCI-H522
OVCAR-5 = test system: OVCAR-5
OVCAR-8 = test system: OVCAR-8
PC-3 = test system: PC-3
RXF 393 = test system: RXF 393
SK-OV-3 = test system: SK-OV-3
T47D = test system: T47D
TK-10 = test system: TK-10
UACC-257 = test system: UACC-257

Measured: GI50

COc1cccc2c1C(=O)C(=O)c1c-2oc(=O)c2cc(C)cc(OC)c12
inactive: ACHN > 75 µM | CAKI-1 67.5 µM | HCT-116 27.4 µM | HL-60 25.7 µM | HOP-62 15.9 µM | HOP-92 59.2 µM | K562 22.3 µM | KM12 21.1 µM | LOX IMVI 13.6 µM | MOLT-4 23 µM | Malme-3M 26.9 µM | NCI-H522 14.1 µM | OVCAR-5 > 75 µM | OVCAR-8 14.9 µM | PC-3 37.8 µM | RXF 393 19.1 µM | SK-OV-3 58.5 µM | T47D 29.9 µM | TK-10 > 75 µM | UACC-257 14.9 µM

O=CCCCCCOCc1ccccc1
inactive: ACHN 36.9 µM | CAKI-1 > 45.8 µM | HCT-116 27 µM | HL-60 11.6 µM | HOP-62 29.4 µM | HOP-92 > 100 µM | K562 9.98 µM | KM12 54.3 µM | LOX IMVI 18.3 µM | MOLT-4 16.9 µM | Malme-3M > 67.1 µM | NCI-H522 20.7 µM | OVCAR-5 > 100 µM | OVCAR-8 > 69.8 µM | PC-3 > 100 µM | RXF 393 > 100 µM | SK-OV-3 > 100 µM | T47D > 100 µM | TK-10 99.5 µM | UACC-257 > 60.8 µM

c1ccc(-c2nnc(SCc3c[nH]c4ccccc34)n2-c2ccccc2)cc1
inactive: ACHN 26.6 µM | CAKI-1 33.1 µM | HCT-116 35.6 µM | HL-60 > 100 µM | HOP-62 19 µM | HOP-92 3.55 µM | K562 47.5 µM | KM12 65.3 µM | LOX IMVI 34.9 µM | MOLT-4 8.11 µM | Malme-3M > 100 µM | NCI-H522 25.9 µM | OVCAR-5 > 100 µM | OVCAR-8 30.7 µM | PC-3 21.4 µM | RXF 393 16.6 µM | SK-OV-3 32.4 µM | T47D 20 µM | TK-10 22.2 µM | UACC-257 23.8 µM

c1ccc(CSC2(SCc3ccccc3)CCCCC2)cc1
inactive: ACHN > 10 µM | CAKI-1 > 10 µM | HCT-116 > 10 µM | HL-60 > 10 µM | HOP-62 > 10 µM | HOP-92 > 10 µM | K562 > 10 µM | KM12 > 10 µM | LOX IMVI > 10 µM | MOLT-4 > 10 µM | Malme-3M > 10 µM | NCI-H522 > 10 µM | OVCAR-8 > 10 µM | PC-3 > 10 µM | RXF 393 > 10 µM | SK-OV-3 > 10 µM | T47D > 10 µM | TK-10 > 10 µM | UACC-257 > 10 µM

Nc1nc(Cl)cc(NCC2(CO)CCC(O)C2)n1 (stereo unspecified)
inactive: ACHN > 100 µM | CAKI-1 > 100 µM | HCT-116 > 100 µM | HL-60 > 100 µM | HOP-62 > 100 µM | HOP-92 > 100 µM | K562 > 100 µM | KM12 > 100 µM | LOX IMVI > 100 µM | MOLT-4 > 100 µM | Malme-3M > 100 µM | NCI-H522 > 100 µM | OVCAR-5 > 100 µM | OVCAR-8 > 100 µM | PC-3 > 100 µM | RXF 393 > 100 µM | SK-OV-3 > 100 µM | T47D > 100 µM | TK-10 > 100 µM | UACC-257 > 100 µM

COc1cc2c(cc1OC)C(Cl)C(c1ccc(Br)cc1)=C2Cl (stereo unspecified)
inactive: ACHN 9.46 µM | CAKI-1 15.1 µM | HCT-116 9.16 µM | HL-60 5.46 µM | HOP-62 17.9 µM | HOP-92 12.1 µM | K562 5.33 µM | KM12 16.3 µM | LOX IMVI 9.48 µM | MOLT-4 4.24 µM | Malme-3M 15 µM | NCI-H522 4.42 µM | OVCAR-5 15.4 µM | OVCAR-8 10.1 µM | PC-3 7.82 µM | RXF 393 11.2 µM | SK-OV-3 16.1 µM | T47D 3.23 µM | TK-10 11.4 µM | UACC-257 15.1 µM

CCN1CCC(O)(c2ccc(Oc3ccc(Cl)cc3)cc2)C(C(=O)c2ccc(Oc3ccc(Cl)cc3)cc2)C1 (stereo unspecified)
inactive: ACHN 14 µM | CAKI-1 14.3 µM | HCT-116 3.78 µM | HL-60 1.8 µM | HOP-62 9.48 µM | HOP-92 7.16 µM | K562 5.28 µM | KM12 2.56 µM | LOX IMVI 3.78 µM | MOLT-4 8.45 µM | Malme-3M 17.2 µM | NCI-H522 2.83 µM | OVCAR-5 13.5 µM | OVCAR-8 17.1 µM | PC-3 9.57 µM | RXF 393 26.2 µM | SK-OV-3 23.3 µM | T47D 14.7 µM | TK-10 10.6 µM | UACC-257 13.3 µM

CCO[C@]12CCC[C@H]1[C@@H]1C(=O)c3ccccc3C(=O)C1=C(C)O2
inactive: ACHN 36.8 µM | CAKI-1 55.8 µM | HL-60 41.7 µM | HOP-62 > 100 µM | HOP-92 44.9 µM | K562 32 µM | KM12 > 100 µM | LOX IMVI 20.8 µM | MOLT-4 33.6 µM | Malme-3M > 100 µM | NCI-H522 > 100 µM | OVCAR-5 > 100 µM | OVCAR-8 40.1 µM | PC-3 > 100 µM | RXF 393 20.5 µM | SK-OV-3 > 100 µM | T47D 70 µM | TK-10 > 100 µM | UACC-257 > 100 µM

C=C1c2cc3c(cc2CC12Cc1cc4c(cc1C2=O)CCC4)CCC3 (stereo unspecified)
inactive: ACHN > 100 µM | CAKI-1 > 100 µM | HCT-116 > 100 µM | HL-60 > 100 µM | HOP-62 > 100 µM | HOP-92 > 100 µM | K562 > 100 µM | LOX IMVI > 100 µM | MOLT-4 > 100 µM | Malme-3M > 100 µM | NCI-H522 > 100 µM | OVCAR-5 > 100 µM | OVCAR-8 > 100 µM | PC-3 > 100 µM | RXF 393 > 100 µM | SK-OV-3 > 100 µM | T47D > 100 µM | TK-10 > 100 µM | UACC-257 > 100 µM

CNC(=O)CCC(NC(=O)OC(C)(C)C)C(=O)NC(Cc1ccc([N+](=O)[O-])cc1)C(=O)NCC(=O)NC (stereo unspecified) (Boc-Glu(NHMe)-[Phe(4-NO2)]-Gly-NHMe; configuration not given here)
inactive: ACHN > 100 µM | CAKI-1 > 100 µM | HCT-116 > 100 µM | HL-60 > 100 µM | HOP-62 > 100 µM | HOP-92 > 100 µM | K562 > 100 µM | KM12 > 100 µM | LOX IMVI > 100 µM | MOLT-4 > 100 µM | Malme-3M > 100 µM | NCI-H522 > 100 µM | OVCAR-5 > 100 µM | OVCAR-8 > 100 µM | PC-3 > 100 µM | RXF 393 > 100 µM | SK-OV-3 > 100 µM | T47D > 100 µM | TK-10 > 100 µM

From ChEMBL document CHEMBL1201862, “PubChem BioAssay data set” (2004)
